Reference: ChEMBL document CHEMBL1201862, “PubChem BioAssay data set” (2004)
Blank lines part the entries; values can stand above or below the compound they belong to. Active and inactive are the calls of the source.

What was measured:
HEK293 [1] = test: cells; conditions: Homo sapiens
Tumor necrosis factor [2] = biological target: T1, Tumor necrosis factor (Homo sapiens, UniProt P01375); test: TNFa-triggered NF-kB activation inhibitors, SAR follow-up, cell-based, revised (AID 2337); format: functional
T1 sequence (P01375 whole entry, the tested form may be a part): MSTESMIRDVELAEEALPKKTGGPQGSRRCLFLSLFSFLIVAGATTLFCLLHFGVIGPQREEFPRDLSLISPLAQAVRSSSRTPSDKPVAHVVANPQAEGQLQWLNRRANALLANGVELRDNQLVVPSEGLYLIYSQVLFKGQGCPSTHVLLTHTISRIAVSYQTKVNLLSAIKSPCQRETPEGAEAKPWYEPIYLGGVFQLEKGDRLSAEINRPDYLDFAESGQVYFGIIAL

[3] = biological target: T2, Nucleotide-binding oligomerization domain-containing protein 2 (Homo sapiens, UniProt Q9HC29); test: PubChem AID 2334; format: functional
T2 sequence (Q9HC29 whole entry, the tested form may be a part): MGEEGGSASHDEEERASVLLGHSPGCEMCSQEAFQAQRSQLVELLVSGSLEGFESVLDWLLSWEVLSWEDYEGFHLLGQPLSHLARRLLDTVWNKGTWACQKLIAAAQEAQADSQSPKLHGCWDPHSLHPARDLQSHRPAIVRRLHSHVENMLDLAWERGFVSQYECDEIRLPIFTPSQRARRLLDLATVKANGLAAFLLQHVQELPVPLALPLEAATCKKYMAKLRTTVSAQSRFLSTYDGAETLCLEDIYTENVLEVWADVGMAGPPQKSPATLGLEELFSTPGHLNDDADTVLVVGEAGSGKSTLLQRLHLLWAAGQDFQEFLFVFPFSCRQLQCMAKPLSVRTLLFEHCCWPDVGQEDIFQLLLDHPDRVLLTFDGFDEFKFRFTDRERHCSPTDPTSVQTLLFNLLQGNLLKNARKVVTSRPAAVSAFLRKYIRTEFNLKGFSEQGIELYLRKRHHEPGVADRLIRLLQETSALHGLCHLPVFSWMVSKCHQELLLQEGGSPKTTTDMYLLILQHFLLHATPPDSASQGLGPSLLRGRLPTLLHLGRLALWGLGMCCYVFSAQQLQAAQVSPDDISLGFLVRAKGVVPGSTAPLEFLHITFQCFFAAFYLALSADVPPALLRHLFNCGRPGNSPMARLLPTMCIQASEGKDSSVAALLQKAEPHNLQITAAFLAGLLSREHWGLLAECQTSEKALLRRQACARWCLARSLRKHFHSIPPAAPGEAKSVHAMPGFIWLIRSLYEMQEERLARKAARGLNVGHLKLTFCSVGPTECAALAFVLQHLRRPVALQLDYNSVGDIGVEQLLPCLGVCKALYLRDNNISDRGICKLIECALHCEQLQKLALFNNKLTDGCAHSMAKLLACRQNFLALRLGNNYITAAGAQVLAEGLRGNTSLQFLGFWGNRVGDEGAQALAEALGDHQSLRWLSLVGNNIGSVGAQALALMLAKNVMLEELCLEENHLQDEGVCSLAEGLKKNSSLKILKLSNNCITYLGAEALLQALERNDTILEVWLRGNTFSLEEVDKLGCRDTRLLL

[4] = biological target: T3, Nucleotide-binding oligomerization domain-containing protein 1 (Homo sapiens, UniProt Q9Y239); test: NOD1 signaling inhibitors, SAR follow-up, revised (AID 2333); format: functional
T3 sequence (Q9Y239 whole entry): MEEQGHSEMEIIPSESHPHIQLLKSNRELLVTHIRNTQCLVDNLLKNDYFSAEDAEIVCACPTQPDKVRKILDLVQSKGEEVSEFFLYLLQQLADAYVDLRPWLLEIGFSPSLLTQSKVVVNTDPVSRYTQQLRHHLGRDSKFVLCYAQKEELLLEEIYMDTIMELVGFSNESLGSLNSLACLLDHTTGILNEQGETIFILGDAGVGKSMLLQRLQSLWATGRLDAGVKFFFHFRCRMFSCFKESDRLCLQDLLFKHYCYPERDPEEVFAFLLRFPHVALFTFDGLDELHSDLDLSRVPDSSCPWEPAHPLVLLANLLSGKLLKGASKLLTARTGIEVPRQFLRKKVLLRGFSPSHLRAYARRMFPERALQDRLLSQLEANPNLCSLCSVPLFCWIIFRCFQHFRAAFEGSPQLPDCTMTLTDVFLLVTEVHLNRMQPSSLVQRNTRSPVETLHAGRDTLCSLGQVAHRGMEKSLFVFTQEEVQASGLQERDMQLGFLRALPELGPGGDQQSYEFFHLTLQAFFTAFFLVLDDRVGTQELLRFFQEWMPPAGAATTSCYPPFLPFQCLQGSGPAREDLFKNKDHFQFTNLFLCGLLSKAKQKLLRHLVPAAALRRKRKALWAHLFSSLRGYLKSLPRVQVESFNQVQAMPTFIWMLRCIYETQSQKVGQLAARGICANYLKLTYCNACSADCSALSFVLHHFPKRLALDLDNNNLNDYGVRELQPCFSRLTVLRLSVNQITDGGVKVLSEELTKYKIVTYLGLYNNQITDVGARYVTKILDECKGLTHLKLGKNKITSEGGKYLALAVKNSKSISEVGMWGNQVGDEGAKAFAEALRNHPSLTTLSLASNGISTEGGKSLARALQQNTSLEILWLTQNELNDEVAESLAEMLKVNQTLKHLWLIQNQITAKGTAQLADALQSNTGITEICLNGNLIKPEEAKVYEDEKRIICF

[5] = biological target: T3, Nucleotide-binding oligomerization domain-containing protein 1; test: SAR analysis of compounds that inhibit NOD1 - Set 2. [Related pubchem assays (depositor defined):AID1566, AID1575, AID1578, AID1849, AID1852, AID2333, AID2335, AID2798]; format: functional
HEK293 [6] = test: SAR analysis of compounds that are cytotoxic to HEK293 - Set 2. [Related pubchem assays (depositor defined):AID1575, AID1578, AID1849, AID2001, AID2333, AID2334, AID2335, AID2337, AID2800]; format: functional, cell-based; conditions: Homo sapiens
Tumor necrosis factor [7] = biological target: T1, Tumor necrosis factor; test: TNFa-triggered NF-kB activation inhibitors, SAR follow-up, cell-based, set 3 (AID 2801); format: functional
[8] = biological target: T2, Nucleotide-binding oligomerization domain-containing protein 2; test: NOD2 signaling inhibitors, analog potency, SAR follow-up, cell-based, set 3 (AID 2799); format: functional
Interleukin-8 [9] = biological target: T4, Interleukin-8 (Homo sapiens, UniProt P10145); test: SAR analysis of Tumor necrosis factor alpha (TNF-alpha) induced IL-8 secretion in MCF-7/NOD1 cells - Set 2. [Related pubchem assays (depositor defined):AID1575, AID2250, AID2260]; format: functional, cell-based
T4 sequence (P10145 whole entry, the tested form may be a part): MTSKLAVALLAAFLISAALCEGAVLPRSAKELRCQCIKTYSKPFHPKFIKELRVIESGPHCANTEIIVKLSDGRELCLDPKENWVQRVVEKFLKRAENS

Fatty acid synthase [10] = biological target: T5, Fatty acid synthase (Homo sapiens, UniProt P49327); test: FAS thioesterase domain inhibitors, dose response, biochemical, kinetic fluorescence intensity (AID 624326); format: functional;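 further: rate of fluorescence rise from hydrolysis of a fluorogenic O-methyl fluorescein ester substrate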
T5 sequence (P49327 whole entry, the tested form may be a part): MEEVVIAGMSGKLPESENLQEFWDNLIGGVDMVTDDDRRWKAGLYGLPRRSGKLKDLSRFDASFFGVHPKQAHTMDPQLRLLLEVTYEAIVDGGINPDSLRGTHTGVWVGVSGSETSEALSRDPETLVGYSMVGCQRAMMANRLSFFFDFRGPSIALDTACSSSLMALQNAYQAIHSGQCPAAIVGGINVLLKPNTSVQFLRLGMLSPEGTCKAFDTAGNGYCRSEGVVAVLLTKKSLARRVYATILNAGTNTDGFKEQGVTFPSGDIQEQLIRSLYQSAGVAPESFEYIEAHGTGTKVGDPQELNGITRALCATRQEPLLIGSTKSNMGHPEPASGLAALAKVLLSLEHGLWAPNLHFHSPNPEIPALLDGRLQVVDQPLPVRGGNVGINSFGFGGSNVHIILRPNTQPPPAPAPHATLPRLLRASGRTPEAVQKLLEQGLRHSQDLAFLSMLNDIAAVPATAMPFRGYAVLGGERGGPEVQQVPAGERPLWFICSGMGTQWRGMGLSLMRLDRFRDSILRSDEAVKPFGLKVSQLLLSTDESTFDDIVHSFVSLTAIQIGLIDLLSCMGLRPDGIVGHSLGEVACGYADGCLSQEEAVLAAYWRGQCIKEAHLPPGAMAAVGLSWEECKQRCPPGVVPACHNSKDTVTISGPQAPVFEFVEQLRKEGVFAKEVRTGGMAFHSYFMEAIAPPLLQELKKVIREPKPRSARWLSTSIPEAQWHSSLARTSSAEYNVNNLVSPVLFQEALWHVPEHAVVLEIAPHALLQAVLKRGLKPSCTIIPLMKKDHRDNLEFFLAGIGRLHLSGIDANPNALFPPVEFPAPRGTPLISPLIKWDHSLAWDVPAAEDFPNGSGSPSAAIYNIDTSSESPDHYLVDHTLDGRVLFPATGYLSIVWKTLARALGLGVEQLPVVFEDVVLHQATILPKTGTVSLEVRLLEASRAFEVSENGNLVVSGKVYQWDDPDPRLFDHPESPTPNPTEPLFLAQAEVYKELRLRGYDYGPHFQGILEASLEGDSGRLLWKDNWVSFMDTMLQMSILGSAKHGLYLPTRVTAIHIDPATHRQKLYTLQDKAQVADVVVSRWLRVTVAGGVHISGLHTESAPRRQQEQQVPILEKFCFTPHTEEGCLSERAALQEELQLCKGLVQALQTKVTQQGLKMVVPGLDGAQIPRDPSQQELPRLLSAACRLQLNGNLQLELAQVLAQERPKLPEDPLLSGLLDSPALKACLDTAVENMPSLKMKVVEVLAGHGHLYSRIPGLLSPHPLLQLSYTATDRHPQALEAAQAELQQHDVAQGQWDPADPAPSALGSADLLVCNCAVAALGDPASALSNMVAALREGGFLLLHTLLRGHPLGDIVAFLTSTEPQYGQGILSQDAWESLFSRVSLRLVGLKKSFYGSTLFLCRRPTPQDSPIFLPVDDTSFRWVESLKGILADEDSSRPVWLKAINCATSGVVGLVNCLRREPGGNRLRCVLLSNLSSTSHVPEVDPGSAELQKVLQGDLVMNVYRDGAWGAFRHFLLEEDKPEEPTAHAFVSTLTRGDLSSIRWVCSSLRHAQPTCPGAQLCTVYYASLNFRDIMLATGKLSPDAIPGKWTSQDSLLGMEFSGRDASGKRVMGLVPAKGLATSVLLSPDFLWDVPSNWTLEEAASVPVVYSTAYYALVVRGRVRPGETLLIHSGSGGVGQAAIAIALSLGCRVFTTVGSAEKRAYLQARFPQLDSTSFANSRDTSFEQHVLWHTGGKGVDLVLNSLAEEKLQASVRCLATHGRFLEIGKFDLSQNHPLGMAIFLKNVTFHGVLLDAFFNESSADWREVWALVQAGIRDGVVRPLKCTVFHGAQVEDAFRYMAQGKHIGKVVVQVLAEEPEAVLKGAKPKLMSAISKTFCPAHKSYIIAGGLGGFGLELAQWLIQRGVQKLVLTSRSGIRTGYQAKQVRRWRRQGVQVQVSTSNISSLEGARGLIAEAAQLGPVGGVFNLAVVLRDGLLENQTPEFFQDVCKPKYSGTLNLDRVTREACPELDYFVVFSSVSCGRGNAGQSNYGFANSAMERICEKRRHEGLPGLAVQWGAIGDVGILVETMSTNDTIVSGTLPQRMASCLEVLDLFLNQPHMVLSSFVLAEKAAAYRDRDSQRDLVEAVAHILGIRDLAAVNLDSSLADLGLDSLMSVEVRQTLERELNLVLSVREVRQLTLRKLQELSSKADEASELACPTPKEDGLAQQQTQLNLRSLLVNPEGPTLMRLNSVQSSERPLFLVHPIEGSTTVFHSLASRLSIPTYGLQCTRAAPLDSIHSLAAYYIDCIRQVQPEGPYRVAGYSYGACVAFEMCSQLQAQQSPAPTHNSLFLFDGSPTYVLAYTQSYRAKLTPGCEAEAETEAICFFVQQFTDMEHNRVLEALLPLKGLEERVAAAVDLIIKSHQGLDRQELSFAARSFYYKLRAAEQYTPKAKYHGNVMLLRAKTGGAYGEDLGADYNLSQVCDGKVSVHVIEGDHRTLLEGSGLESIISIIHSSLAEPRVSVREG

[11] = biological target: T6, High affinity choline transporter 1 (Homo sapiens, UniProt Q9GZV3); test: CHT inhibitors, dose response, cell-based, 5-point CRC, membrane potential dye (AID 504840); format: functional
T6 sequence (Q9GZV3 whole entry): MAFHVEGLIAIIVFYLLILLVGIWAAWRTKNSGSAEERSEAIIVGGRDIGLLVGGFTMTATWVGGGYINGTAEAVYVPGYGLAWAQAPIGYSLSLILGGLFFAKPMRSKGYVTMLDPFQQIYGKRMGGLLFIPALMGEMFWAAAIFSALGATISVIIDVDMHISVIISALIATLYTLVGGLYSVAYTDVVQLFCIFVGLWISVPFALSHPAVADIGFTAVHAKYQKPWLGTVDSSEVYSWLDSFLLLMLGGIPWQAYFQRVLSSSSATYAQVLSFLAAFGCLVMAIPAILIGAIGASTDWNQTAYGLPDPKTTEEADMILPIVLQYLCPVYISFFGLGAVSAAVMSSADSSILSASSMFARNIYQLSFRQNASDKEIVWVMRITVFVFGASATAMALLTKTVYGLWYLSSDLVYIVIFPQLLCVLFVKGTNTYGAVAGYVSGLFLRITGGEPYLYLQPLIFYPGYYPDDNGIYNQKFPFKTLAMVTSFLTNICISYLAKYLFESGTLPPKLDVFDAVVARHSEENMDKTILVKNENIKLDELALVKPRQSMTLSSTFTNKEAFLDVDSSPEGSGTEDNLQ

Interleukin-8 [12] = biological target: T4, Interleukin-8; test: SAR analysis of GM-Tri-DAP induced IL-8 secretion in MCF-7/NOD1 cells - Set 2. [Related pubchem assays (depositor defined):AID1575, AID1578, AID2333]; format: functional, cell-based
Fatty acid synthase [13] = biological target: T5, Fatty acid synthase; test: FAS thioesterase domain inhibitors, dose response, biochemical, endpoint fluorescence intensity, uHTS hits (AID 624327); format: functional;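 further: fluorescence from hydrolysis of an O-methyl fluorescein acyl ester substrate by the enzyme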
[14] = biological target: T2, Nucleotide-binding oligomerization domain-containing protein 2; test: NOD2 inhibitors, SAR follow-up, set 2 (AID 2475); format: functional
[15] = biological target: T3, Nucleotide-binding oligomerization domain-containing protein 1; test: SAR analysis of compounds that inhibit NOD1 - Set 3. [Related pubchem assays (depositor defined):AID1566, AID1575, AID1578, AID1849, AID1852, AID2333, AID2335, AID2466]; format: functional
HEK293 [16] = test: SAR analysis of compounds that are cytotoxic to HEK293 - Set 3. [Related pubchem assays (depositor defined):AID1575, AID1578, AID1848, AID1849, AID2001, AID2333, AID2334, AID2335, AID2337, AID2469]; format: functional, cell-based; conditions: Homo sapiens
[17] = biological target: T3, Nucleotide-binding oligomerization domain-containing protein 1; test: SAR analysis of NF-kappaB dependent luciferase using DAP as an inducer - Set 2. [Related pubchem assays (depositor defined):AID1566, AID1575, AID1578, AID1579, AID1849, AID1852, AID2264]; format: functional
Cytochrome P450 2D6 = Cytochrome P450 2D6 (Homo sapiens, UniProt P10635);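 further: CYP2D6 member of a cytochrome P450 panel assay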
Cytochrome P450 2C9 = Cytochrome P450 2C9 (Homo sapiens, UniProt P11712)
Cytochrome P450 2C9, sequence (P11712 whole entry): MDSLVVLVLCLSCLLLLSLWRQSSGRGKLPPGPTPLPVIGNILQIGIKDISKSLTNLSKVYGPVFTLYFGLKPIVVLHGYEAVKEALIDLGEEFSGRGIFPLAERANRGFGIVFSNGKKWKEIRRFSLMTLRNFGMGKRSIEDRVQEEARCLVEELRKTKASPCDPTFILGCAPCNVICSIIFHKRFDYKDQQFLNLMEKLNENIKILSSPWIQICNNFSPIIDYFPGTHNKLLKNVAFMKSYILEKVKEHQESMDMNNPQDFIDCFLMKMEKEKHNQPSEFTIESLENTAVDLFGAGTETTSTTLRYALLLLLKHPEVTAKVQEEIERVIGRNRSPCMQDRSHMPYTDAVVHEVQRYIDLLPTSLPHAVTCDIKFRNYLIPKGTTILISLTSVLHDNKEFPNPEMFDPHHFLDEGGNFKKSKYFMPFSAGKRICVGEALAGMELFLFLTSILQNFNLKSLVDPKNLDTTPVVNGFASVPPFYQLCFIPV

[18] = biological target: Voltage-dependent T-type calcium channel subunit alpha-1H (Homo sapiens, UniProt O95180); test: Cav3.2 T-type channel blockers, cell-based, SynthLib3 library, HEK293 Cav3.2, fluorescence (AID 493041); format: functional
[19] = biological target: G-protein coupled receptor 55 (Homo sapiens, UniProt Q9Y2T6); test: GPR55 antagonists, SAR follow-up, counter-screen for GPR35 antagonist project, imaging, image-based (AID 2397); format: functional
G-protein coupled receptor 55, sequence (Q9Y2T6 whole entry): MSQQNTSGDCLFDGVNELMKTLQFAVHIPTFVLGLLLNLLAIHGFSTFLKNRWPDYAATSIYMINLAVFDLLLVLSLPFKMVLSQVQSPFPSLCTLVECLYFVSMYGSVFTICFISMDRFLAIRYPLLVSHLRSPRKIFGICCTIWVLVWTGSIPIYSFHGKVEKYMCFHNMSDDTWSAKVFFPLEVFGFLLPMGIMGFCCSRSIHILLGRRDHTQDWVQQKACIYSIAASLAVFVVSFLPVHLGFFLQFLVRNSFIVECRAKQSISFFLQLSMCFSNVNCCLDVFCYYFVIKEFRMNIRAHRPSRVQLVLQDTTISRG

Compound: CC1(C)Cc2c(sc(NC(=O)c3ccccc3Cl)c2C(=O)O)CO1
IC50 (HEK293 [1]): > 20 µM (inactive)
IC50 (Tumor necrosis factor [2]): > 20 µM (inactive)
IC50 [3]: > 20 µM (inactive)
IC50 [4]: > 20 µM (inactive)

Compound: CCCCn1c(CN2CCN(c3cccc(Cl)c3)CC2)nc2c1c(=O)n(C)c(=O)n2C
IC50 [5]: 2.18 µM (active)
IC50 (HEK293 [6]): > 20 µM (inactive)
IC50 (Tumor necrosis factor [7]): 3.35 µM (active)
IC50 [8]: 1.41 µM (active)
IC50 (Interleukin-8 [9]): > 25 µM (inactive)
IC50 (Fatty acid synthase [10]): 5.74 µM (active)
IC50 [11]: 15.1 µM (active)
IC50 (Interleukin-8 [12]): > 25 µM (inactive)
IC50 (Fatty acid synthase [13]): 5.07 µM (active)
IC50 [14]: 2.21 µM (active)
IC50 [15]: 1.8 µM (active)
IC50 (HEK293 [16]): > 20 µM (inactive)
IC50 [17]: 8.7 µM (active)

AC50 (Cytochrome P450 2D6): inconclusive
AC50 (Cytochrome P450 2C9): inconclusive
Compound: CCOC(=O)COc1c(C=O)cc(Br)cc1OC

Compound: CC(C)(C)Cc1nnc(NC(=O)COc2ccc(Cl)cc2Cl)o1
EC50 [18]: 0.81 µM (active)

Compound: c1ccc(-c2n[n+](-c3ccccc3)c(-c3ccccc3)s2)cc1
IC50 [19]: > 32 µM (inactive)
